Measured values: the supplement of paper PMC6045584
± gives the standard deviation of the averaged measurements.

What was measured:
GEFITINIB = compound: COc1cc2ncnc(Nc3ccc(F)c(Cl)c3)c2cc1OCCCN1CCOCC1 [GEFITINIB]; experiment: surviving fraction relative to DMSO-only wells; higher = less growth inhibition; conditions: exposure time: 5 days
How it was run: (§1)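 Continuous five-day exposure to inhibitors at 0.5, 1, 5, 10, 50, 100, 500 and 1000 nM started 24 hours after log-phase tumour cell lines were seeded at 250–500 cells per well in 384-well plates. Luminescence was read after 10 minutes at room temperature. Viability is given as surviving fraction, meaning CellTiter-Glo luminescence normalised to the median of DMSO-only wells.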

CELECOXIB = compound: Cc1ccc(-c2cc(C(F)(F)F)nn2-c2ccc(S(N)(=O)=O)cc2)cc1 [CELECOXIB]; experiment: as above; conditions: exposure time: 5 days
How it was run: as §1

## MDAMB157 BREAST
GEFITINIB; 0.5 nM
  surviving fraction: 1.04 ± 0.033
GEFITINIB; 1 nM
  surviving fraction: 0.968 ± 0.067
GEFITINIB; 5 nM
  surviving fraction: 0.92 ± 0.057
GEFITINIB; 10 nM
  surviving fraction: 1.01 ± 0.059
GEFITINIB; 50 nM
  surviving fraction: 0.911 ± 0.1
GEFITINIB; 100 nM
  surviving fraction: 1.02 ± 0.053
GEFITINIB; 500 nM
  surviving fraction: 0.991 ± 0.026
GEFITINIB; 1000 nM
  surviving fraction: 0.864 ± 0.066
CELECOXIB; 0.5 nM
  surviving fraction: 0.92 ± 0.089
CELECOXIB; 1 nM
  surviving fraction: 0.989 ± 0.093
CELECOXIB; 5 nM
  surviving fraction: 0.993 ± 0.048
CELECOXIB; 10 nM
  surviving fraction: 0.967 ± 0.045
CELECOXIB; 50 nM
  surviving fraction: 1 ± 0.16
CELECOXIB; 100 nM
  surviving fraction: 0.991 ± 0.04
CELECOXIB; 500 nM
  surviving fraction: 0.984 ± 0.025
CELECOXIB; 1000 nM
  surviving fraction: 0.945 ± 0.07

## MDAMB134 BREAST
GEFITINIB; 0.5 nM
  surviving fraction: 0.881 ± 0.014
GEFITINIB; 1 nM
  surviving fraction: 0.974 ± 0.067
GEFITINIB; 5 nM
  surviving fraction: 0.775 ± 0.21
GEFITINIB; 10 nM
  surviving fraction: 0.873 ± 0.0099
GEFITINIB; 50 nM
  surviving fraction: 1.2 ± 0.2
GEFITINIB; 100 nM
  surviving fraction: 1.13 ± 0.023
GEFITINIB; 500 nM
  surviving fraction: 1 ± 0.067
GEFITINIB; 1000 nM
  surviving fraction: 1.1 ± 0.064
CELECOXIB; 0.5 nM
  surviving fraction: 0.969 ± 0.016
CELECOXIB; 1 nM
  surviving fraction: 0.898 ± 0.054
CELECOXIB; 5 nM
  surviving fraction: 0.881 ± 0.084
CELECOXIB; 10 nM
  surviving fraction: 0.913 ± 0.083
CELECOXIB; 50 nM
  surviving fraction: 1.18 ± 0.2
CELECOXIB; 100 nM
  surviving fraction: 1.18 ± 0.12
CELECOXIB; 500 nM
  surviving fraction: 0.984 ± 0.095
CELECOXIB; 1000 nM
  surviving fraction: 0.978 ± 0.085

## HT1080 SOFT TISSUE
GEFITINIB; 0.5 nM
  surviving fraction: 1.05 ± 0.016
GEFITINIB; 1 nM
  surviving fraction: 1.05 ± 0.035
GEFITINIB; 5 nM
  surviving fraction: 1.05 ± 0.069
GEFITINIB; 10 nM
  surviving fraction: 1.11 ± 0.036
GEFITINIB; 50 nM
  surviving fraction: 1.01 ± 0.029
GEFITINIB; 100 nM
  surviving fraction: 1.03 ± 0.028
GEFITINIB; 500 nM
  surviving fraction: 1.042 ± 0.0056
GEFITINIB; 1000 nM
  surviving fraction: 1.01 ± 0.034
CELECOXIB; 0.5 nM
  surviving fraction: 1.039 ± 0.0011
CELECOXIB; 1 nM
  surviving fraction: 1.06 ± 0.011
CELECOXIB; 5 nM
  surviving fraction: 1.038 ± 0.0067
CELECOXIB; 10 nM
  surviving fraction: 1.05 ± 0.014
CELECOXIB; 50 nM
  surviving fraction: 0.995 ± 0.02
CELECOXIB; 100 nM
  surviving fraction: 1.011 ± 0.008
CELECOXIB; 500 nM
  surviving fraction: 1.02 ± 0.012
CELECOXIB; 1000 nM
  surviving fraction: 1 ± 0.021

## MHM BONE
GEFITINIB; 0.5 nM
  surviving fraction: 1.01 ± 0.046
GEFITINIB; 1 nM
  surviving fraction: 1.02 ± 0.038
GEFITINIB; 5 nM
  surviving fraction: 1.06 ± 0.051
GEFITINIB; 10 nM
  surviving fraction: 1.05 ± 0.051
GEFITINIB; 50 nM
  surviving fraction: 1.03 ± 0.012
GEFITINIB; 100 nM
  surviving fraction: 1.026 ± 0.01
GEFITINIB; 500 nM
  surviving fraction: 0.9993 ± 0.0096
GEFITINIB; 1000 nM
  surviving fraction: 0.972 ± 0.013
CELECOXIB; 0.5 nM
  surviving fraction: 1.01 ± 0.038
CELECOXIB; 1 nM
  surviving fraction: 1.01 ± 0.027
CELECOXIB; 5 nM
  surviving fraction: 1.04 ± 0.03
CELECOXIB; 10 nM
  surviving fraction: 1.08 ± 0.057
CELECOXIB; 50 nM
  surviving fraction: 1.05 ± 0.041
CELECOXIB; 100 nM
  surviving fraction: 1.05 ± 0.025
CELECOXIB; 500 nM
  surviving fraction: 1.009 ± 0.009
CELECOXIB; 1000 nM
  surviving fraction: 1.02 ± 0.028

## SUM149 BREAST
GEFITINIB; 0.5 nM
  surviving fraction: 1.16 ± 0.077
GEFITINIB; 1 nM
  surviving fraction: 1.15 ± 0.098
GEFITINIB; 5 nM
  surviving fraction: 1.08 ± 0.052
GEFITINIB; 10 nM
  surviving fraction: 1.15 ± 0.12
GEFITINIB; 50 nM
  surviving fraction: 0.926 ± 0.016
GEFITINIB; 100 nM
  surviving fraction: 0.8 ± 0.026
GEFITINIB; 500 nM
  surviving fraction: 0.487 ± 0.04
GEFITINIB; 1000 nM
  surviving fraction: 0.448 ± 0.076
CELECOXIB; 0.5 nM
  surviving fraction: 1.1 ± 0.056
CELECOXIB; 1 nM
  surviving fraction: 1.09 ± 0.021
CELECOXIB; 5 nM
  surviving fraction: 1.2 ± 0.035
CELECOXIB; 10 nM
  surviving fraction: 1.16 ± 0.057
CELECOXIB; 50 nM
  surviving fraction: 1.08 ± 0.021
CELECOXIB; 100 nM
  surviving fraction: 1.09 ± 0.13
CELECOXIB; 500 nM
  surviving fraction: 1.06 ± 0.04
CELECOXIB; 1000 nM
  surviving fraction: 1.12 ± 0.13

## COLO320DM LARGE INTESTINE
GEFITINIB; 0.5 nM
  surviving fraction: 1.17 ± 0.07
GEFITINIB; 1 nM
  surviving fraction: 1.21 ± 0.051
GEFITINIB; 5 nM
  surviving fraction: 1.13 ± 0.081
GEFITINIB; 10 nM
  surviving fraction: 1.1 ± 0.026
GEFITINIB; 50 nM
  surviving fraction: 1.14 ± 0.085
GEFITINIB; 100 nM
  surviving fraction: 1.2 ± 0.1
GEFITINIB; 500 nM
  surviving fraction: 1.05 ± 0.14
GEFITINIB; 1000 nM
  surviving fraction: 1.06 ± 0.094
CELECOXIB; 0.5 nM
  surviving fraction: 1.12 ± 0.18
CELECOXIB; 1 nM
  surviving fraction: 1.12 ± 0.17
CELECOXIB; 5 nM
  surviving fraction: 1.15 ± 0.075
CELECOXIB; 10 nM
  surviving fraction: 1.12 ± 0.15
CELECOXIB; 50 nM
  surviving fraction: 1.14 ± 0.043
CELECOXIB; 100 nM
  surviving fraction: 1.15 ± 0.025
CELECOXIB; 500 nM
  surviving fraction: 1.15 ± 0.074
CELECOXIB; 1000 nM
  surviving fraction: 1.13 ± 0.031

## MFM223 BREAST
GEFITINIB; 0.5 nM
  surviving fraction: 1.49 ± 0.61
GEFITINIB; 1 nM
  surviving fraction: 1.42 ± 0.47
GEFITINIB; 5 nM
  surviving fraction: 1.51 ± 0.61
GEFITINIB; 10 nM
  surviving fraction: 1.5 ± 0.53
GEFITINIB; 50 nM
  surviving fraction: 1.19 ± 0.058
GEFITINIB; 100 nM
  surviving fraction: 1.19 ± 0.092
GEFITINIB; 500 nM
  surviving fraction: 1.12 ± 0.035
GEFITINIB; 1000 nM
  surviving fraction: 1.14 ± 0.07
CELECOXIB; 0.5 nM
  surviving fraction: 1.41 ± 0.52
CELECOXIB; 1 nM
  surviving fraction: 1.3 ± 0.2
CELECOXIB; 5 nM
  surviving fraction: 1.29 ± 0.26
CELECOXIB; 10 nM
  surviving fraction: 1.33 ± 0.34
CELECOXIB; 50 nM
  surviving fraction: 1.1 ± 0.034
CELECOXIB; 100 nM
  surviving fraction: 1.09 ± 0.1
CELECOXIB; 500 nM
  surviving fraction: 1.05 ± 0.11
CELECOXIB; 1000 nM
  surviving fraction: 1.03 ± 0.017

## HS578T BREAST
GEFITINIB; 0.5 nM
  surviving fraction: 0.972 ± 0.039
GEFITINIB; 1 nM
  surviving fraction: 0.906 ± 0.078
GEFITINIB; 5 nM
  surviving fraction: 0.965 ± 0.095
GEFITINIB; 10 nM
  surviving fraction: 0.878 ± 0.12
GEFITINIB; 50 nM
  surviving fraction: 0.996 ± 0.13
GEFITINIB; 100 nM
  surviving fraction: 0.819 ± 0.075
GEFITINIB; 500 nM
  surviving fraction: 1.07 ± 0.1
GEFITINIB; 1000 nM
  surviving fraction: 0.899 ± 0.23
CELECOXIB; 0.5 nM
  surviving fraction: 0.9 ± 0.013
CELECOXIB; 1 nM
  surviving fraction: 0.892 ± 0.26
CELECOXIB; 5 nM
  surviving fraction: 0.942 ± 0.14
CELECOXIB; 10 nM
  surviving fraction: 0.942 ± 0.093
CELECOXIB; 50 nM
  surviving fraction: 0.923 ± 0.12
CELECOXIB; 100 nM
  surviving fraction: 1.11 ± 0.17
CELECOXIB; 500 nM
  surviving fraction: 0.961 ± 0.083
CELECOXIB; 1000 nM
  surviving fraction: 0.969 ± 0.1

## BT20 BREAST
GEFITINIB; 0.5 nM
  surviving fraction: 1.14 ± 0.02
GEFITINIB; 1 nM
  surviving fraction: 1.19 ± 0.063
GEFITINIB; 5 nM
  surviving fraction: 1.13 ± 0.11
GEFITINIB; 10 nM
  surviving fraction: 1.15 ± 0.043
GEFITINIB; 50 nM
  surviving fraction: 1.06 ± 0.011
GEFITINIB; 100 nM
  surviving fraction: 1.06 ± 0.013
GEFITINIB; 500 nM
  surviving fraction: 1.05 ± 0.04
GEFITINIB; 1000 nM
  surviving fraction: 0.984 ± 0.085
CELECOXIB; 0.5 nM
  surviving fraction: 1.14 ± 0.085
CELECOXIB; 1 nM
  surviving fraction: 1.1 ± 0.035
CELECOXIB; 5 nM
  surviving fraction: 1.08 ± 0.059
CELECOXIB; 10 nM
  surviving fraction: 1.19 ± 0.077
CELECOXIB; 50 nM
  surviving fraction: 1.11 ± 0.072
CELECOXIB; 100 nM
  surviving fraction: 1.22 ± 0.061
CELECOXIB; 500 nM
  surviving fraction: 1.23 ± 0.059
CELECOXIB; 1000 nM
  surviving fraction: 1.07 ± 0.047

## SUM159 BREAST
GEFITINIB; 0.5 nM
  surviving fraction: 1.1 ± 0.026
GEFITINIB; 1 nM
  surviving fraction: 1.1 ± 0.034
GEFITINIB; 5 nM
  surviving fraction: 1.09 ± 0.02
GEFITINIB; 10 nM
  surviving fraction: 1.06 ± 0.025
GEFITINIB; 50 nM
  surviving fraction: 1.08 ± 0.014
GEFITINIB; 100 nM
  surviving fraction: 1.04 ± 0.031
GEFITINIB; 500 nM
  surviving fraction: 1.03 ± 0.036
GEFITINIB; 1000 nM
  surviving fraction: 1.036 ± 0.0092
CELECOXIB; 0.5 nM
  surviving fraction: 1.07 ± 0.032
CELECOXIB; 1 nM
  surviving fraction: 1.1 ± 0.031
CELECOXIB; 5 nM
  surviving fraction: 1.09 ± 0.032
CELECOXIB; 10 nM
  surviving fraction: 1.08 ± 0.048
CELECOXIB; 50 nM
  surviving fraction: 1.08 ± 0.014
CELECOXIB; 100 nM
  surviving fraction: 1.1 ± 0.024
CELECOXIB; 500 nM
  surviving fraction: 1.07 ± 0.021
CELECOXIB; 1000 nM
  surviving fraction: 1.09 ± 0.017
